Measured values published in patent publication US20260294864A1, “PHARMACEUTICAL COMPOSITION FOR THE TREATMENT AND PREVENTION OF HPV” (NP1 SRL, priority 2022, published 2026).
pIC50: −log10 of the molar value. One block for each compound: values may come before it.

Tests used:
[1] = test system: HeLa cells; assay: Anti-clonogenic activity on HeLa cells (plating efficiency assay / live cell imaging); format: cell-based, human; settings: for clonal inhibition in combination with Apigenin: 50 μM combined with Apigenin 25 μM; for clonal inhibition in combination with Apigenin / end point clonal assay, clonal inhibition alone: FIG. 9-11; for clonal inhibition in combination with Galangin: 50 μM combined with Galangin 12.5 μM, FIG. 9-10; for end point clonal assay, clonal inhibition alone / Anti-clonal effect: 50 μM; for end point clonal assay, clonal inhibition alone: administered alone; for Anti-clonal effect: isolated, FIG. 1
Protocol: Panel C and D: diagrammatic topographical maps of treatments and growth conditions on plates A and B respectively.
Panel A. Hela cells were challenged with serial twofold dilutions of 50 μM Luteolin (in columns 1-6) and 100 μM Galangin (columns 7-10). Hela control untreated cells in columns 11-12.
(§1) A total of 6 cell lines, outlined in Table 3, were used for this study. The cell lines were obtained from Research Centres of cell biology in Italy, United Kingdom and Germany. This research raised no ethical concern being based on entirely in vitro experiments using no patients' derived information or material. In compliance with National and International ethical rules, no informed consent is needed.
(§2) HeLa cells are the oldest continuous cell lines and were originally derived from a HPV18 positive metastatic cervical carcinoma (Scherer W F et al 1953). Siha cells are an epithelioid like cell line derived from a HPV16-positive invasive cervical squamous carcinoma (Friedel F et al 1970). Ca-Ski cells are a line harboring multiple copy of transcriptionally active HPV16 genomes (Baker C C et al 1984). Both Hela and Siha were a kind gift of prof MS Campo, The Beatson Institute for Cancer Research, Glasgow, Scotland. These two cell lines because of their versatility and ease of use were used for most of experiments reported. Ca-Ski cells were obtained through the courtesy of prof. Matthias Durst, at the Deutsch Krebsforschungzentrum—Heidelberg, FRG. These cells used together with Siha provide a model for the genetic instability and variability of cervical cancers. HK-168 is an immortalized, non-tumorigenic, continuous cell line derived from human skin keratinocytes in vitro transformed with whole HPV16 genome (De Marco F et al 2007). This cell line is reputed to recapitulate le biological features of transformed dysplastic cells and was used in preliminary experiments to set the experimental dosages and conditions. The ME-180 cells are a cell line harboring a few, transcriptionally active, copies of HPV68 and provide an in vitro model for dysplastic/neoplastic lesions induced by HPV with Intermediate oncogenic Risk (Yee C C et al 1985). The HaCaT cells, derived from a solar skin lesion by Petra Boukamp et al (1988) are here used as an in vitro equivalent of Ultra-Violet induced pre-neoplastic epithelial cells to rule out possible direct toxic effects of polyphenols. Both HaCaT and ME-180, were kindly donated by Prof. Matthias Durst. Hela, Siha, Ca-Ski, ME-180 and HaCaT were all grown in high glucose DMEM supplemented with 10% fetal calf serum (FCS). The HK-168 cells, which retained the ability to terminally differentiate under high Ca^2+ and FCS concentrations, were grown in K-SFM, a chemically defined medium supplemented with human EGF and bovine pituitary extract (ThermoFisher Scientific, Life Technologies, Monza—MI). Each cell line was sub-cultured twice a week at the appropriate split ratio according to the specific proliferative index. In no case antibiotics or antimycotics were added to the culture media. For the present study, all cell lines were retrieved from an in-house cell archive facility.
The anti-clonogenic activity was evaluated both by the current standard qualitative plating efficiency assay and by quantitative live cell imaging analysis ([…] S3 Live Cell Analysis Imaging System—Sartorius Welwyn Garden City, Hertfordshire, UK).

[2] = test system: HPV transformed cells; assay: Anti-clonal effect on HPV transformed cells (cell line not stated); format: cell-based, human; settings: for clonal inhibition in combination / anticlonogenic / anti-clonal effect: summary statement; for anticlonogenic / anti-clonal effect / pIC50 / IRR (inhibitory relative rate): isolated compound; for pIC50: Homo sapiens, minimal concentration reducing 50% of CFU of treated versus control, read-out: CID50 (50% clonal inhibitory dose), isolated polyphenols; for IRR (inhibitory relative rate): reverse ratio of CID50 to the reference CID50 of Quercetin (=1)
Protocol: The inhibitory relative rate (IRR) (fourth column) provides an efficacy ranking of molecules.
The anti-clonogenic activity was evaluated both by the current standard qualitative plating efficiency assay and by quantitative live cell imaging analysis (INCUCYTE S3 Live Cell Analysis Imaging System—Sartorius Welwyn Garden City, Hertfordshire, UK). For qualitative plating efficiency assay cells were seeded at ‘clonal’ density (i.e., 0.5 cell/mm^2) either in medium containing the testing molecules or with plain medium and incubated without any further manipulation. After 9-14 days, according to the cell line specific proliferative index, the cultures were decanted and stained with 0.2% CV/methanol for 5 min at room temperature. All conditions were tested in triplicates in a 6-well culture plate. The anti-clonogenic activity of the treatments was evaluated using the colony forming units (CFU) of treated versus control cultures. The minimal concentration which could reduce 50% of the CFU of treated versus control culture was defined as colony-forming Inhibitory concentration (CID50). For quantitative evaluation cells were seeded in 96-well microplates at the above density and condition and allowed to grow the subsequent 8-day incubation in the INCUCYTE S3 Imaging System. Images were acquired at 12-hours intervals and colony formation and percentage of growth area covered (confluency) were then monitored through automated image analysis. The analysis parameters were as follows: segmentation adjustment=0.4; hole fill <5,000 μm^2; adjusted pixel=−2.

[3] = test system: PC3 prostate cancer cells; settings: PC3 cells (Lansky E P et al 2005); cited from earlier work
[4] = test system: Ca-Ski cells; assay: Anti-clonogenic activity on Ca-Ski cells; format: cell-based, human; settings: compared with HeLa data of FIG. 10
Source text: (§3) HeLa cells are the oldest continuous cell lines and were originally derived from a HPV18 positive metastatic cervical carcinoma (Scherer W F et al 1953). Siha cells are an epithelioid like cell line derived from a HPV16-positive invasive cervical squamous carcinoma (Friedel F et al 1970). Ca-Ski cells are a line harboring multiple copy of transcriptionally active HPV16 genomes (Baker C C et al 1984). Both Hela and Siha were a kind gift of prof MS Campo, The Beatson Institute for Cancer Research, Glasgow, Scotland. These two cell lines because of their versatility and ease of use were used for most of experiments reported. Ca-Ski cells were obtained through the courtesy of prof. Matthias Durst, at the Deutsch Krebsforschungzentrum—Heidelberg, FRG. […]
(§4) The anti-clonogenic activity was evaluated both by the current standard qualitative plating efficiency assay and by quantitative live cell imaging analysis (INCUCYTE S3 Live Cell Analysis Imaging System—Sartorius Welwyn Garden City, Hertfordshire, UK). […] The anti-clonogenic activity of the treatments was evaluated using the colony forming units (CFU) of treated versus control cultures. […] For quantitative evaluation cells were seeded in 96-well microplates at the above density and condition and allowed to grow the subsequent 8-day incubation in the INCUCYTE S3 Imaging System. […]

[5] = test system: ME-180 cells; assay: Anti-clonogenic activity on ME-180 cells; format: cell-based, human; settings: compared with HeLa data of FIG. 10
Source text: as §3, §4

[6] = test system: gastric cancer cells; settings: wound-healing and Boyden Chamber assays (Ho H H et al 2010); cited from earlier work
[7] = test system: glioma cells; settings: wound-healing and Boyden Chamber assays (Lu J et al 2010); cited from earlier work
[8] = test system: Siha cells; assay: Anti-clonogenic activity on SiHa cells (plating efficiency assay / live cell imaging); format: cell-based, human; settings: for inhibition at 25 µM: Homo sapiens, single compound, 24 hours treatment then wash-out, FIG. 12, read-out: clonal inhibition
Protocol: In this experiment Kaempferol and Apigenin were administered to Siha cells at decremental concentrations, either in combination or alone, as shown in the topographical map (in panel C). […] Histograms in Panel B depict the number of colonies per well as evaluated by visual inspection and count.
The Histograms in Panel B depict the number of colonies per well as evaluated by visual inspection and count. • In Panel C a topographical map of plate treatments. Each condition was assayed in duplicate.
Kaempferol, Galangin, Luteolin and their combination were administered to SiHa cells at the concentrations of 25 μM each and of 12,5/12,5/6,25 μM for their combination. Treatments were allowed to stay on cells either for 2 or 4/8/16/24 hours. After that, treatments were washed out, cells washed two times with PBS, replenished with fresh medium and the anti-clonal effect was then monitored by live cell image analysis.
as §1, §2

[9] = test system: HPV transformed cells; assay: Antiproliferative effect on HPV transformed cells (cell line not stated); format: cell-based, human; settings: summary statement, isolated compound
Protocol: (§5) For antiproliferative effect cells were seeded in 96-well microplates at 1000 cells/per well (i.e.: 30 cell/mm^2), a density allowing exponential growth rate for the subsequent 8-day incubation. After overnight adhesion cell monolayers were washed and replenished with fresh media with different testing molecules, plain medium served as cell growth control.
(§6) Cell growth was then monitored by automated INCUCTE S3 imaging Systems. Images were acquired at 12-hours intervals. The analysis parameters were as follows: segmentation adjustment=0.9; hole fill <7,000 μm^2; adjusted pixel=0.

[10] = test system: Siha cells; assay: Antiproliferative effect on Siha cells, live cell analysis; format: cell-based, human; settings: Siha 1000 cells/well; for antiproliferative effect: 50 μM, FIG. 2
Protocol: FIG. 2: live cell analysis of RNPs antiproliferative effect. Siha cells were seeded at 1000 cells/well in a 96 well plate and allowed to adhere overnight. The plate was then washed twice with PBS and replenished with 100 microliter/well fresh medium plus 50 μM of each compound. Images were taken every 12 hours; Growth curves were drawn plotting the percentage of confluence versus time. […] In fact, their growth curves outline a single spindle completely overlapping and masking the one of control untreated cells. Conversely, a distinct anti-proliferative effect is evident in panel B- where the growth curves of RNP 9 Kaempferol (solid squares), RNP 12 Luteolin (solid diamonds), RNP 16 Apigenin (solid circles) and control untreated cells (solid stars) are depicted. […] Each point represents the mean of six independent replicas. Bar width represents the Standard Deviation (SD). Consistent results were also obtained by HeLa and ME-180 cells
as §5, §6
Data for growth curves, anti-clonal and Antiproliferative assays were obtained from at least three independent experiments. Each data point of quantitative anti-proliferative or anti-clonal experiments represents the mean (±SD) of eight independent replicates. Data were analyzed and plotted using Prism 6.0 software (GraphPad Software, San Diego, CA).

SMILES: O=C(O)/C=C/c1ccc(O)c(O)c1 [Caffeic acid]
- clonal inhibition in combination with Apigenin ([1]; HeLa): almost complete clonal inhibition
- clonal inhibition in combination with Galangin ([1]; HeLa): almost complete clonal inhibition
- end point clonal assay, clonal inhibition alone ([1]; HeLa): neither of them induced any effect
- Anti-clonal effect ([1]; HeLa): devoid of any significant anticlonogenic effect
- synergistic effect with Galangine and Apigenin ([1]; in association, HeLa, FIG. 9): synergistic effect
- clonal inhibition in combination ([2]; combined with Galangin or Quercetin): a certain grade of clonal inhibition
- anticlonogenic / anti-clonal effect [2]: devoid of any direct activity
- anticlonogenic / anti-clonal effect ([2]; listed as Caffeic): devoid of. any direct anticlonogenic activity
- reduction of invasiveness [3]: 50%

SMILES: COc1cc(/C=C/C(=O)O)ccc1O [Ferulic acid]
- clonal inhibition with Galangin, Chrysin or Apigenin [4]: Superimposable results
- clonal inhibition in combination with Apigenin ([1]; HeLa): almost complete clonal inhibition
- clonal inhibition in combination with Chrysin ([1]; 50 μM combined with Chrysin 25 μM, HeLa, FIG. 10-11): almost complete clonal inhibition
- clonal inhibition in combination with Galangin ([1]; HeLa): almost complete clonal inhibition
- end point clonal assay, clonal inhibition alone ([1]; HeLa): Neither of them induced any effect
- Anti-clonal effect ([1]; HeLa): devoid of any significant anticlonogenic effect
- synergy with Galangine, Apigenin and Chrysin ([1]; in association, HeLa, FIG. 10-11): synergize
- clonal inhibition in combination ([2]; combined with Galangin, Chrysin or Apigenin): a certain grade of clonal inhibition
- anticlonogenic / anti-clonal effect [2]: devoid of. any direct anticlonogenic activity
- clonal inhibition with Galangin, Chrysin or Apigenin [5]: Superimposable results

SMILES: O=C(O)c1cc(O)c(O)c(O)c1 [Gallic acid]
- migration of gastric cancer cells [6]: reduce the migration
- migration of glioma cells [7]: reduce the migration

- pIC50 [2]: 4.60
SMILES: O=c1c(O)c(-c2ccc(O)cc2)oc2cc(O)cc(O)c12 [Kaempferol]
- clonal efficiency versus control untreated cells ([8]; 12.5 μM, alone, Siha, FIG. 4): no difference to control untreated cells
- inhibition at 25 µM ([8]; SiHa): ~50%
- Anti-clonal effect ([1]; HeLa): almost complete suppression of clonal activity
- antiproliferative effect [9]: sharp anticlonogenic and antiproliferative effect
- IRR (inhibitory relative rate) [2]: 2
- anticlonogenic / anti-clonal effect [2]: sharp anticlonogenic and antiproliferative effect
- antiproliferative effect [10]: distinct, although milder effect
- inhibition at 50 µM ([10]; Homo sapiens, FIG. 2, read-out: suppression of proliferation): ~40%

SMILES: O=c1cc(-c2ccc(O)c(O)c2)oc2cc(O)cc(O)c12 [Luteolin]
- end-point anti-clonal effect versus control untreated cells ([8]; 6.25 μM, alone, SiHa, FIG. 6-8): no difference to control untreated cells
- inhibition at 25 µM ([8]; SiHa): ~50%
- Anti-clonal effect ([1]; HeLa): almost complete suppression of clonal activity
- pIC50 ([1]; Homo sapiens, HeLa, serial twofold dilutions (Luteolin from 50 μM, Galangin from 100 μM), live cell image analysis, FIG. 3, read-out: CID50 (50% clonal inhibitory dose)): 5.20
- inhibition at up to 50 µM ([1]; Homo sapiens, wells D:1-6, serial twofold dilutions of 50 μM, HeLa, FIG. 3, read-out: anti-clonal titration, inhibition in wells D:1-6): ~50%
- anti-clonal effect at concentrations above CID50 ([1]; higher concentrations than CID50, HeLa, FIG. 3): completely suppressive
- anti-clonal titration, inhibition in wells C:1-6 ([1]; wells C:1-6, serial twofold dilutions of 50 μM, HeLa, FIG. 3): almost complete inhibition
- antiproliferative effect [9]: sharp anticlonogenic and antiproliferative effect
- pIC50 [2]: 5.20
- IRR (inhibitory relative rate) [2]: 8
- anticlonogenic / anti-clonal effect [2]: sharp anticlonogenic and antiproliferative effect
- antiproliferative effect [10]: almost complete suppression of proliferation
- antiproliferative effect ([10]; listed as luteolin): sharp antiproliferative effect
